This experiment addresses Tyrosine-protein kinase JAK1 (Homo sapiens, UniProt P23458). Description: JAK enzyme was expressed as N-terminal GST fusion in insect cells and purified by glutathione-affinity and size-exclusion chromatographies. […] Phosphorylated and unphosphotylated peptides were separated and quantified by a Caliper LC3000 system (Caliper Life Sciences, MA) for calculating percent inhibition. It is filed as organism-based.

Each structure is given as a SMILES string.

Tyrosine-protein kinase JAK1, sequence (P23458 whole entry, the tested form may be a part): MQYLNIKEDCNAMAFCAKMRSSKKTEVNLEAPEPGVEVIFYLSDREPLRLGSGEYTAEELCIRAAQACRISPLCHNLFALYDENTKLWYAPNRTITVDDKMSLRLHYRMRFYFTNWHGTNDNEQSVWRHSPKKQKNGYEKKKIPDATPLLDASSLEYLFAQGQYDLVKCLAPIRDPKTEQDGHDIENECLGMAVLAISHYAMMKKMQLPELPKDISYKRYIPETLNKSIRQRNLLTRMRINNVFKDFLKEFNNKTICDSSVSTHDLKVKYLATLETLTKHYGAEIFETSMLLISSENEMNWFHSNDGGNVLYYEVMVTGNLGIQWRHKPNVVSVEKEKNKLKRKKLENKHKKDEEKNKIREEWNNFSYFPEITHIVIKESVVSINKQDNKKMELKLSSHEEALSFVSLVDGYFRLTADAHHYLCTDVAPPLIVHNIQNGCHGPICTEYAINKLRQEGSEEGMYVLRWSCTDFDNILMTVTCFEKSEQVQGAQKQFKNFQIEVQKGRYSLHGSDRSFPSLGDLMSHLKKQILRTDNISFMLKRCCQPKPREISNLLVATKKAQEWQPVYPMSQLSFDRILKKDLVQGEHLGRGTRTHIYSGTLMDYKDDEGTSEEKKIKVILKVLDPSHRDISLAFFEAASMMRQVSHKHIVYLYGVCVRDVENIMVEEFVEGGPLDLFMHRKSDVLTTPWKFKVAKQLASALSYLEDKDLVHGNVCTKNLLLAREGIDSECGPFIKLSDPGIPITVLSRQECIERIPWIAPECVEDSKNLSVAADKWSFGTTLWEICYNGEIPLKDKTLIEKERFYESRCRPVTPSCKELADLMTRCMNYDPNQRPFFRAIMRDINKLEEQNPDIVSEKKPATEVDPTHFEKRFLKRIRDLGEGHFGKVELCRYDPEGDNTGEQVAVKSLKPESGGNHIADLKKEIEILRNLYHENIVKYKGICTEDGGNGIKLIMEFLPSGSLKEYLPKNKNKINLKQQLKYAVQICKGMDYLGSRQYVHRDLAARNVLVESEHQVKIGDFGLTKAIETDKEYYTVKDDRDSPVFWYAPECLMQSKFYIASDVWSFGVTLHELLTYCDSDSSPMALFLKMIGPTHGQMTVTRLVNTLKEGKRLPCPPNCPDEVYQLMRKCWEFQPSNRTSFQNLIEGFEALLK

As for `Cc1cnc(Nc2cccc(S(C)(=O)=O)c2F)nc1-c1c[nH]c2c(NC(=O)[C@@H](C)N3C[C@H](C)N[C@@H](C)C3)cccc12`, the concentration for half-maximal inhibition (IC50) was 3.4 nM.
